In US20240262835A1, “PRMT5 INHIBITING COMPOUNDS AND USES THEREOF” (ANTENGENE DISCOVERY LIMITED, priority 2023, published 2024):

How the values were obtained:
[1] = tested on: cryopreserved hepatocytes; settings: mouse
Procedure: 1) 10 mM test compounds were provided.
(§1) 2) 30 mM positive control stock solutions: Dissolved accurate amount of positive control compounds in dimethyl sulfoxide (DMSO).
(§2) 3) 1000× Stock Solution: Diluted 10 mM test compounds and 30 mM positive control compounds to 1 mM and 3 mM with DMSO in 96-well plates.
(§3) 4) 100× Dosing Solution: Diluted 1 mM test compounds and 3 mM positive control compounds to 100 μM and 300 μM dosing solutions with ACN.
(§4) 5) Preparation of 0.5×10^6/mL cells suspension: cryopreserved cells were thawed, isolated and suspended in Incubation Medium, then diluted with pre-warmed Incubation Medium to 0.5×10^6 cells/mL.
(§5) 6) Add 198 μL of pre-warmed cell suspensions in 96-well plates.
(§6) 7) Preparation of Quenching Plate: Transfer 125 μL of stop solution in a set of pre-labeled 96-well plates.
(§7) 8) Spike 2 μL dosing solution to each well of 96-well plates in duplicate.
(§8) 9) For TO Samples, mix to achieve a homogenous suspension for about 1 min, then immediately transfer 25 μL of each sample into well containing 125 μL of ice-cold stop solution followed by mixing.
(§9) 10) Incubate all plates at 37° C. in a 95% humidified incubator at 5% CO2 to start the reactions with constant shaking.
(§10) 11) At 15, 30, 60 and 90 min, mix samples and then transfer 25 μL of each sample at each time point to well containing 125 μL of ice-cold stop solution followed by mixing.
(§11) 12) Medium Control (MC) sample plates (labeled as TO-MC and T90-MC) are prepared in the same way as cell incubation except that medium was used instead of cell suspension.
(§12) 13) At each corresponding time point, stop the reactions by removing the plates from incubator and mixing with 125 μL of ice-cold stop solution.
(§13) 14) Vortex the plates immediately on a plate shaker at 600 rpm for 10 minutes. Then, centrifuge all sample plates at 3220×g for 20 min at 4° C.
(§14) 15) After centrifugation, 80 μL/well of supernatant in the sample plates are transferred to another set of pre-labeled 96-well plates which containing 240 μL of ultra pure water according to the plate map.
(§15) 16) Analytical plates are sealed and store at 4° C. until LC-MS/MS analysis.
(§16) The remaining percents of test articles after incubation were calculated by the follow equations:
(§17) Use the following equation of first order kinetics to calculate T1/2 and CLint:

[2] = tested on: cryopreserved hepatocytes; settings: human
Procedure: 1) 10 mM test compounds were provided.
as §1, §2, §3, §4, §5, §6, §7, §8, §9, §10, §11, §12, §13, §14, §15, §16, §17

[3] = tested on: cryopreserved hepatocytes; settings: dog
Procedure: 1) 10 mM test compounds were provided.
as §1, §2, §3, §4, §5, §6, §7, §8, §9, §10, §11, §12, §13, §14, §15, §16, §17

[4] = in vitro; settings: rat, hepatocytes
Procedure: 1) 10 mM test compounds were provided.
as §1, §2, §3, §4, §5, §6, §7, §8, §9, §10, §11, §12, §13, §14, §15, §16, §17

[5] = in vitro; settings: mouse, hepatocytes
Procedure: 1) 10 mM test compounds were provided.
as §1, §2, §3, §4, §5, §6, §7, §8, §9, §10, §11, §12, §13, §14, §15, §16, §17

[6] = in vitro; settings: dog, hepatocytes
Procedure: 1) 10 mM test compounds were provided.
as §1, §2, §3, §4, §5, §6, §7, §8, §9, §10, §11, §12, §13, §14, §15, §16, §17

[7] = tested on: cryopreserved hepatocytes; settings: rat
Procedure: 1) 10 mM test compounds were provided.
as §1, §2, §3, §4, §5, §6, §7, §8, §9, §10, §11, §12, §13, §14, §15, §16, §17

[8] = in vitro; settings: human, hepatocytes
Procedure: 1) 10 mM test compounds were provided.
as §1, §2, §3, §4, §5, §6, §7, §8, §9, §10, §11, §12, §13, §14, §15, §16, §17

[9] = tested on: cryopreserved hepatocytes; settings: cynomolgus monkey
Procedure: 1) 10 mM test compounds were provided.
as §1, §2, §3, §4, §5, §6, §7, §8, §9, §10, §11, §12, §13, §14, §15, §16, §17

[10] = in vitro; settings: cynomolgus monkey, hepatocytes
Procedure: 1) 10 mM test compounds were provided.
as §1, §2, §3, §4, §5, §6, §7, §8, §9, §10, §11, §12, §13, §14, §15, §16, §17

[11] = in vitro; settings: rat, microsomes
[12] = Liver microsome metabolic stability (LMS) assay, cynomolgus monkey
[13] = Liver microsome metabolic stability (LMS) assay, human
[14] = Liver microsome metabolic stability (LMS) assay, dog; settings: dog, microsomes
[15] = rat liver microsome, scaled to liver

For `CCOc1ccc2ccc(=O)oc2c1` [Ref. 1, 7-Ethoxycoumarin], the “CLint (hep) M” value [1] was 647.9 μL/min/10^6, the “CLint (hep) H” value [2] was 72.1 μL/min/10^6 and the “CLint (hep) D” value [3] was 521.1 μL/min/10^6. For the same molecule, the CLint scaled at 3 μM [4] was 184 mL/min/kg, the half-life at 3 μM [4] was 35.3 min and the CLint scaled at 3 μM [5] was 7700 mL/min/kg. The half-life at 3 μM [5] was 2.1 min, the CLint scaled at 3 μM [6] was 3580 mL/min/kg and the “CLint (hep) R” value [7] was 39.2 μL/min/10^6. The CLint scaled at 3 μM [8] was 201 mL/min/kg, the half-life at 3 μM [8] was 19.2 min and the “CLint (hep) C” value [9] was 154.0 μL/min/10^6. It also gave a CLint scaled at 3 μM [10] of 554 mL/min/kg and a half-life at 3 μM [10] of 9 min.

In the case of `C[C@]12CC[C@H]3[C@@H](CCC4=CC(=O)CC[C@@]43C)[C@@H]1CC[C@@H]2O` [Ref. 4, Testosterone, reference compound], the half-life [11] is reported as 0.7 min, the “CLint (mic) C” value ([12]; cynomolgus monkey liver microsome) is reported as 152.3 µL/min/mg and the CLint scaled at 1 μM ([12]; cynomolgus monkey, microsomes) is reported as 206 mL/min/kg. The half-life at 1 μM ([12]; cynomolgus monkey, microsomes) was 9.1 min, the “CLint (mic) H” value ([13]; human liver microsome) was 79.0 µL/min/mg and the half-life at 1 μM ([13]; human, microsomes) was 17.6 min. It also gave a CLint scaled at 1 μM [14] of 58.7 mL/min/kg, a half-life at 1 μM [14] of 34 min and a microsomal CLint at 1 μM [14] of 40.8 µL/min/mg. For the same molecule, the “CLint (liver) R” value [15] was 3782.4 mL/min/kg.
